Results published in PubChem BioAssay (NCI).
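Values below derive from 48-hour exposures of cells grown in 96-well plates, with endpoints linearly interpolated between the two concentrations bracketing the appropriate inhibition level. TGI denotes the concentration required for complete inhibition of growth.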

Assays:
Assay in all cases: NCI-60 cell line screen, 48 h
EKVX NSCLC = system: EKVX NSCLC
SK-MEL-2 melanoma = system: SK-MEL-2 melanoma
SK-MEL-28 melanoma = system: SK-MEL-28 melanoma
SNB-75 CNS = system: SNB-75 CNS
HS 578T breast = system: HS 578T breast
NCI-H23 lung = system: NCI-H23 lung
NCI-H226 lung = system: NCI-H226 lung
HT29 colon = system: HT29 colon
MCF7 breast = system: MCF7 breast
NCI-H522 lung = system: NCI-H522 lung
HCT-116 colon = system: HCT-116 colon
K-562 leukemia = system: K-562 leukemia
SN12C renal = system: SN12C renal
SW-620 colon = system: SW-620 colon
KM12 colon = system: KM12 colon
OVCAR-8 ovarian = system: OVCAR-8 ovarian
DU-145 prostate = system: DU-145 prostate
SK-OV-3 ovarian = system: SK-OV-3 ovarian
OVCAR-4 ovarian = system: OVCAR-4 ovarian
TK-10 renal = system: TK-10 renal
OVCAR-5 ovarian = system: OVCAR-5 ovarian
NCI/ADR-RES ovarian = system: NCI/ADR-RES ovarian
T-47D breast = system: T-47D breast
HOP-92 NSCLC = system: HOP-92 NSCLC
COLO 205 colon = system: COLO 205 colon
SF-268 CNS = system: SF-268 CNS
MDA-N = system: MDA-N
MOLT-4 leukemia = system: MOLT-4 leukemia
CCRF-CEM leukemia = system: CCRF-CEM leukemia
HCC-2998 colon = system: HCC-2998 colon
IGROV1 ovarian = system: IGROV1 ovarian
A498 renal = system: A498 renal
MDA-MB-435 = system: MDA-MB-435
RXF 393 renal = system: RXF 393 renal
UACC-257 melanoma = system: UACC-257 melanoma
M14 melanoma = system: M14 melanoma
786-0 renal = system: 786-0 renal
NCI-H460 lung = system: NCI-H460 lung
UO-31 renal = system: UO-31 renal
U251 CNS = system: U251 CNS
HOP-62 NSCLC = system: HOP-62 NSCLC
ACHN renal = system: ACHN renal
SF-295 CNS = system: SF-295 CNS
LOX IMVI melanoma = system: LOX IMVI melanoma
OVCAR-3 ovarian = system: OVCAR-3 ovarian
HCT-15 colon = system: HCT-15 colon
SK-MEL-5 melanoma = system: SK-MEL-5 melanoma
PC-3 prostate = system: PC-3 prostate
CAKI-1 renal = system: CAKI-1 renal
SNB-19 CNS = system: SNB-19 CNS
BT-549 breast = system: BT-549 breast
A549 NSCLC = system: A549 NSCLC
MDA-MB-231 breast = system: MDA-MB-231 breast
MALME-3M melanoma = system: MALME-3M melanoma
UACC-62 melanoma = system: UACC-62 melanoma

O=[N+]([O-])c1ccc2c(c1)nc(Cc1ccccc1)n2C[C@@H]1CCCN2CCCCC12 (some centres undefined)
TGI (EKVX NSCLC): 62 µM | TGI (SK-MEL-2 melanoma): 44.8 µM | TGI (SK-MEL-28 melanoma): 38.3 µM | TGI (SNB-75 CNS): > 100 µM | TGI (HS 578T breast): > 100 µM | TGI (NCI-H23 lung): > 100 µM | TGI (NCI-H226 lung): > 100 µM | TGI (HT29 colon): 49.2 µM | TGI (MCF7 breast): > 100 µM | TGI (NCI-H522 lung): 80 µM | TGI (HCT-116 colon): > 100 µM | TGI (K-562 leukemia): 49.1 µM | TGI (SN12C renal): > 100 µM | TGI (SW-620 colon): > 100 µM | TGI (KM12 colon): 55.4 µM | TGI (OVCAR-8 ovarian): > 100 µM | TGI (DU-145 prostate): > 100 µM | TGI (SK-OV-3 ovarian): > 100 µM | TGI (OVCAR-4 ovarian): > 100 µM | TGI (TK-10 renal): > 100 µM | TGI (OVCAR-5 ovarian): > 100 µM | TGI (NCI/ADR-RES ovarian): > 100 µM | TGI (T-47D breast): > 100 µM | TGI (HOP-92 NSCLC): > 100 µM | TGI (COLO 205 colon): 37.4 µM | TGI (SF-268 CNS): > 100 µM | TGI (MDA-N): 38.6 µM | TGI (MOLT-4 leukemia): 47.6 µM | TGI (CCRF-CEM leukemia): 50.2 µM | TGI (HCC-2998 colon): 33.2 µM | TGI (IGROV1 ovarian): > 100 µM | TGI (A498 renal): 33.2 µM | TGI (MDA-MB-435): 35.5 µM | TGI (RXF 393 renal): 59.6 µM | TGI (UACC-257 melanoma): 31.4 µM | TGI (M14 melanoma): 33.1 µM | TGI (786-0 renal): 47.6 µM | TGI (NCI-H460 lung): > 100 µM | TGI (UO-31 renal): 22.8 µM | TGI (U251 CNS): > 100 µM | TGI (HOP-62 NSCLC): > 100 µM | TGI (ACHN renal): > 100 µM | TGI (SF-295 CNS): 37.9 µM | TGI (LOX IMVI melanoma): 60.2 µM | TGI (OVCAR-3 ovarian): > 100 µM | TGI (HCT-15 colon): > 100 µM | TGI (SK-MEL-5 melanoma): 31.4 µM | TGI (PC-3 prostate): > 100 µM | TGI (CAKI-1 renal): > 100 µM | TGI (SNB-19 CNS): > 100 µM | TGI (BT-549 breast): > 100 µM | TGI (A549 NSCLC): > 100 µM | TGI (MDA-MB-231 breast): 95.1 µM | TGI (MALME-3M melanoma): 29.2 µM | TGI (UACC-62 melanoma): 36.3 µM

CN(C)CCCn1c(Cc2ccccc2)nc2cc(C(F)(F)F)ccc21
TGI (EKVX NSCLC): 67.6 µM | TGI (SK-MEL-2 melanoma): 33 µM | TGI (SK-MEL-28 melanoma): 37.6 µM | TGI (SNB-75 CNS): > 100 µM | TGI (HS 578T breast): > 100 µM | TGI (NCI-H23 lung): 83.2 µM | TGI (NCI-H226 lung): > 100 µM | TGI (HT29 colon): 42.4 µM | TGI (MCF7 breast): 39.3 µM | TGI (NCI-H522 lung): 48.3 µM | TGI (HCT-116 colon): 33.2 µM | TGI (K-562 leukemia): 47 µM | TGI (SN12C renal): > 100 µM | TGI (SW-620 colon): 75.2 µM | TGI (KM12 colon): 31.3 µM | TGI (OVCAR-8 ovarian): > 100 µM | TGI (DU-145 prostate): > 100 µM | TGI (SK-OV-3 ovarian): 63.2 µM | TGI (OVCAR-4 ovarian): > 100 µM | TGI (TK-10 renal): 98.4 µM | TGI (OVCAR-5 ovarian): > 100 µM | TGI (NCI/ADR-RES ovarian): > 100 µM | TGI (T-47D breast): 50.7 µM | TGI (HOP-92 NSCLC): 92 µM | TGI (COLO 205 colon): 34.7 µM | TGI (SF-268 CNS): > 100 µM | TGI (MDA-N): 33.1 µM | TGI (MOLT-4 leukemia): 48.3 µM | TGI (CCRF-CEM leukemia): 40.3 µM | TGI (IGROV1 ovarian): > 100 µM | TGI (A498 renal): 34.6 µM | TGI (MDA-MB-435): 32.4 µM | TGI (RXF 393 renal): 67.8 µM | TGI (UACC-257 melanoma): 34.2 µM | TGI (M14 melanoma): 30.4 µM | TGI (786-0 renal): 33.9 µM | TGI (NCI-H460 lung): 43.2 µM | TGI (UO-31 renal): 5.32 µM | TGI (U251 CNS): 38.8 µM | TGI (HOP-62 NSCLC): > 100 µM | TGI (ACHN renal): > 100 µM | TGI (SF-295 CNS): 33.5 µM | TGI (LOX IMVI melanoma): 35.6 µM | TGI (OVCAR-3 ovarian): > 100 µM | TGI (HCT-15 colon): 69.6 µM | TGI (SK-MEL-5 melanoma): 33.2 µM | TGI (PC-3 prostate): > 100 µM | TGI (CAKI-1 renal): 51.1 µM | TGI (SNB-19 CNS): 86.9 µM | TGI (BT-549 breast): 92.4 µM | TGI (A549 NSCLC): 31.8 µM | TGI (MDA-MB-231 breast): 73.3 µM | TGI (MALME-3M melanoma): 35.5 µM | TGI (UACC-62 melanoma): 34.4 µM
